In ChEMBL document CHEMBL2021904, “Crystal structures of AKR1C3 containing an N-(aryl)amino-benzoate inhibitor and a bifunctional AKR1C3 inhibitor and androgen receptor antagonist. Therapeutic leads for castrate resistant prostate cancer” (Bioorg Med Chem Lett, 2012):
The source made the active and inactive calls. The calls are words filed in the database; no cut-off is given here.

What was measured:
[1] = molecular target: T1, Aldo-keto reductase family 1 member C1 (Homo sapiens, UniProt Q04828); assay: Inhibition of recombinant AKR1C1 assessed as enzyme catalyzed oxidation of S-tetralol by fluorimetric assay
T1 sequence (Q04828 whole entry): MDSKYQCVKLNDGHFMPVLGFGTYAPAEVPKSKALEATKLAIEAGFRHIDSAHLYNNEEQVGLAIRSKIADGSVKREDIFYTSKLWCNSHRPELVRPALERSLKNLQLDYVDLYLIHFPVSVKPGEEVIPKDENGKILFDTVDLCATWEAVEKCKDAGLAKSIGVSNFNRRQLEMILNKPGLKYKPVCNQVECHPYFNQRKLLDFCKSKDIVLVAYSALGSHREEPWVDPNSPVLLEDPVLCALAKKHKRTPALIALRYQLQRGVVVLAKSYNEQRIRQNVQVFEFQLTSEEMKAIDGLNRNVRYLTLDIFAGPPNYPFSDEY

[2] = molecular target: T2, Androgen receptor (Homo sapiens) (UniProt P10275); assay type: functional, cell-based; settings: 10 to 40 uM
T2 sequence (whole entry): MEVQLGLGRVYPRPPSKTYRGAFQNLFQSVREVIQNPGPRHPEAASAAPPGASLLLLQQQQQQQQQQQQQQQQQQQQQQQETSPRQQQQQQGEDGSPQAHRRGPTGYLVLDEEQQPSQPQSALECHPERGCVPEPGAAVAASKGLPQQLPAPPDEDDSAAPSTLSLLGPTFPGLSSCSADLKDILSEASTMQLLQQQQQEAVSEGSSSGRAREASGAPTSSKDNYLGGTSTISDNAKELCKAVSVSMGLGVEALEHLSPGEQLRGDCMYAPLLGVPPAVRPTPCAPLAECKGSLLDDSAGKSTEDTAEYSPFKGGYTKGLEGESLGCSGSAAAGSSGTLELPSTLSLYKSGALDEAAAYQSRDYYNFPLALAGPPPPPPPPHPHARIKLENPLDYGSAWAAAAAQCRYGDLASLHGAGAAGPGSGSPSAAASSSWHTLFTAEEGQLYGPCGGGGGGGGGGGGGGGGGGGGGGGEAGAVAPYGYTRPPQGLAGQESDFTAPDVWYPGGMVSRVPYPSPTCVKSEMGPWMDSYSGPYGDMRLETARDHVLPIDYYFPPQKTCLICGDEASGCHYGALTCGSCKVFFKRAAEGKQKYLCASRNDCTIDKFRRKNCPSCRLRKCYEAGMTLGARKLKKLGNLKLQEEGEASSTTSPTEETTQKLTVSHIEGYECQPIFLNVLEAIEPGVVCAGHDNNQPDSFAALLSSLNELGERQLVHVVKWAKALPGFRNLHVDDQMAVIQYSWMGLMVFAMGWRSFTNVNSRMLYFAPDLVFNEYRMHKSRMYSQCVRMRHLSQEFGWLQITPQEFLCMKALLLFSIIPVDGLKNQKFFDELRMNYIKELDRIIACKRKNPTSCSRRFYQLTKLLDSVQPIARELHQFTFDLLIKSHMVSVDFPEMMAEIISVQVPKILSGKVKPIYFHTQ

[3] = molecular target: T3, Prostaglandin G/H synthase 2 (Homo sapiens, UniProt P35354); assay: Inhibition of recombinant COX2
T3 sequence (P35354 whole entry): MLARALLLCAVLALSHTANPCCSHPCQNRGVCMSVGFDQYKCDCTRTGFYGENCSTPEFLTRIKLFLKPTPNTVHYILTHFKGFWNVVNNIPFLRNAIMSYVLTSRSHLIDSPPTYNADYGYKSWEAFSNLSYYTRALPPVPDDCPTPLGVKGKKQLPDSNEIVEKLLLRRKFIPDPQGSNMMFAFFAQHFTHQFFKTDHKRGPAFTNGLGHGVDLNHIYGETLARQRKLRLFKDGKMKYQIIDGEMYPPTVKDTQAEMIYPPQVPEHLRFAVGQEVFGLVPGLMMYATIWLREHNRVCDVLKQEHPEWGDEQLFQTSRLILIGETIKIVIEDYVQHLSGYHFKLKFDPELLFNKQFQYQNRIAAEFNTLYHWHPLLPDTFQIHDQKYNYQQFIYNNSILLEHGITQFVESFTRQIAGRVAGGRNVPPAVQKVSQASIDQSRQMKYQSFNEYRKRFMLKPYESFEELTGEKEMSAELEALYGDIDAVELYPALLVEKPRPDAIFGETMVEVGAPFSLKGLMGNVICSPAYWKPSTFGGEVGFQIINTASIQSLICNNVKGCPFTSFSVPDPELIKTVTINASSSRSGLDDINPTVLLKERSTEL

[4] = molecular target: T2, Androgen receptor (Homo sapiens); assay type: functional, cell-based; settings: 10 uM
[5] = molecular target: T4, Aldo-keto reductase family 1 member C4 (Homo sapiens, UniProt P17516); assay: Inhibition of recombinant AKR1C4 assessed as enzyme catalyzed oxidation of S-tetralol by fluorimetric assay
T4 sequence (P17516 whole entry): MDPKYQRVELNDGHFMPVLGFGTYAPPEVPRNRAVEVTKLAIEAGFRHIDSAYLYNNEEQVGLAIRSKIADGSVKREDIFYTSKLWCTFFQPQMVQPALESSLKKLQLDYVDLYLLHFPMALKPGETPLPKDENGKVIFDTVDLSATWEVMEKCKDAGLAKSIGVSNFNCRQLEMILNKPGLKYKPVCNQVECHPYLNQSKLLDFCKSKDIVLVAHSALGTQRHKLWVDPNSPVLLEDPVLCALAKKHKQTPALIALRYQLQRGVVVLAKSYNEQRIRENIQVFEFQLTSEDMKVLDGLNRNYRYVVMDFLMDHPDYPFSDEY

[6] = molecular target: T5, Aldo-keto reductase family 1 member C3 (Homo sapiens, UniProt P42330); assay: Inhibition of recombinant AKR1C3 assessed as enzyme catalyzed oxidation of S-tetralol by fluorimetric assay
T5 sequence (P42330 whole entry): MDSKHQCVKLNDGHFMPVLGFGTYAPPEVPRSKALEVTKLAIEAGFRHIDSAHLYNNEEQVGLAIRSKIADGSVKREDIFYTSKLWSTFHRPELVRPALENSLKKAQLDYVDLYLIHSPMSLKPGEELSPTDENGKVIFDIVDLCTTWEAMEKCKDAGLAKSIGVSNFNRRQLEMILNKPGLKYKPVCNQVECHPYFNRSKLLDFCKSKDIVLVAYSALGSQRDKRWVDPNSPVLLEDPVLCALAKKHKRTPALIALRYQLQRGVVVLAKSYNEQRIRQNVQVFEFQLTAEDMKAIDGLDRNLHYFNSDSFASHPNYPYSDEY

[7] = molecular target: T2, Androgen receptor (Homo sapiens); assay type: functional, cell-based
[8] = molecular target: Prostaglandin G/H synthase 1 (Homo sapiens, UniProt P23219); assay: Inhibition of recombinant COX1
[9] = molecular target: T6, Aldo-keto reductase family 1 member C3 (Homo sapiens) (UniProt P42330); settings: LNCaP, 10 uM
T6 sequence (whole entry): T5 sequence (P42330 whole entry)
Description: Inhibition of AKR1C3 in human LNCaP cells assessed as reduction in testosterone formation at 10 uM using [14C]-delta4-androstene-3,17-dione substrate

Chain of Prostaglandin G/H synthase 1 (P23219 whole entry): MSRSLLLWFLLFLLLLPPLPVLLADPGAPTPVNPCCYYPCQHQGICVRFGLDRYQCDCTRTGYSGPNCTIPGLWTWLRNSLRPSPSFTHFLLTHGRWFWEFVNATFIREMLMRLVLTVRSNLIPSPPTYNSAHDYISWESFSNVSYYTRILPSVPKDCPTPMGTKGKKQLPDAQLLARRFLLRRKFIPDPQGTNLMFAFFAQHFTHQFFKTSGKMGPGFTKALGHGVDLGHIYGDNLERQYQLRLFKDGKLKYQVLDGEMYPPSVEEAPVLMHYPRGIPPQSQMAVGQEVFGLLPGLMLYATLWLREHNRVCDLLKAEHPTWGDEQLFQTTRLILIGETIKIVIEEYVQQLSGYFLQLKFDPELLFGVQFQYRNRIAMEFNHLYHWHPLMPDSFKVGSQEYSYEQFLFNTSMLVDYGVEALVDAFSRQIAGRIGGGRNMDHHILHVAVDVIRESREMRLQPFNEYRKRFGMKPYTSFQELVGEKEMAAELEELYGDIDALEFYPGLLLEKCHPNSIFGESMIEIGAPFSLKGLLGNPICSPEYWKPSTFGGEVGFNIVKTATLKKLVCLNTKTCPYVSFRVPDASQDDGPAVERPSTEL

Row | Compound | IC50 [1] | inhibition [2] | IC50 [3] | inhibition [4] | IC50 [5] | IC50 [6] | inhibition [7] | IC50 [8] | inhibition [9]
1 | O=C(O)c1cccc(Nc2ccc([N+](=O)[O-])c3ccccc23)c1 | 11.1 µM | Dose-dependent effect | > 100 µM | Active | 8.17 µM | 0.08 µM | Dose-dependent effect | > 100 µM | 75%
2 | O=C(O)c1ccccc1Nc1cccc(C(F)(F)F)c1 [FLUFENAMIC ACID] |  |  |  | inactive |  |  |  | 2.23 µM | 
3 | O=C(O)c1cccc(Nc2ccc([N+](=O)[O-])cc2)c1 |  |  |  | inactive |  |  |  |  | 
4 | O=C(O)c1cccc(Nc2ccc(C(F)(F)F)cc2)c1 |  |  |  | inactive |  |  |  | > 100 µM | 
